# Data from US20230357099A1, “PYRAZOLO [3,4-B] PYRIDINE-4-CARBOXAMIDE NITRIFICATION INHIBITOR” (EUROCHEM ANTWERPTEN, priority 2020, published 2023).
# Read-outs that look alike come from different tables or passages of the source.
# Key:
# [1] = test system: Nitrososphaera viennensis; test: Nitrification inhibition assay on Nitrososphaera viennensis (nitrite, Griess); format: cell-based, Nitrososphaera viennensis EN76T; details: for N. viennensis - relative nitrification (%) at 0.5 µM: 0.5 µM compound; for N. viennensis - relative nitrification (%) at 0.5 µM / N. viennensis - relative nitrification (%) at 5 µM / N. viennensis - relative nitrification (%) at 25 µM: 0% = as strong as 100 µM PTIO, 100% = no inhibition; for N. viennensis - relative nitrification (%) at 5 µM: 5 µM compound; for N. viennensis - relative nitrification (%) at 25 µM: 25 µM compound; for activity at 2.5 µM: Nitrososphaera viennensis, 2.5 µM compound, structural variants outside formula (I), read-out: Relative nitrification (%) by Nitrososphaera viennensis treated with 2.5 µM compound
# Experimental: Nitrite (NO2—) was measured using the Griess reagent (Product number: G4410, Griess reagent (modified), Sigma-Aldrich). Equal volumes of the sample or a diluted sample and the Griess reagent were mixed a transparent flat bottom multi-well plate and incubated in the dark at room temperature for 10 minutes. Absorbance values at 540 nm were measured spectrophotometrically (EnVision, Perkin Elmer®) and used to calculate the [NO2—] by use of a standard curve.
# A liquid culture sample of Nitrososphaera viennensis EN76T was kindly supplied by prof. dr. Christa Schleper (University of Vienna). Cells were grown in fresh water medium (FWM) as described earlier by Tourna et al. (2011). All necessary materials were rinsed with 1 % HCl and washed at least 3 times with MilliQ water. FWM (pH 7.5 (KOH)) contained 17 mM NaCl, 3 mM MgCl2 × 2 H2O, 680 µM CaCl2 × 2 H2O, 1.47 mM KH2PO4 and 6.71 mM KCI. After autoclaving, successively 1 mL non-chelated trace element mixture (101 mM HCl, 488 µM H3BO3, 508 µM MnCl2 × 4 H2O, 803 µM CoCl2 × 6 H2O, 101 µM NiCl2 × 6 H2O, 12 µM CuCl2 × 2 H2O, 503 µM ZnSO4 × 7 H2O and 150 µM Na2MoO4 × 2 H2O), 1 mL Fe-NaEDTA (7.5 mM), 1 mL vitamin solution (20 mg/L biotin, 20 mg/L folic acid, 100 mg/L pyridoxine-HCl, 50 mg/L thiamine-HCl, 50 mg/L riboflavin, 50 mg/L nicotinic acid, 50 mg/L DL-pantothenic acid, 50 mg/L P-aminobenzoic acid, 2 g/L choline chloride and 10 mg/L vitamin B12), 2 mL NaHCO3 (1 M), 2 mL kanamycin (100 mg/mL), 2 mL carbenicillin (100 mg/mL), 3 mL NH4Cl (1 M), 10 mL HEPES buffer (1 M, pH 7.6) and 1 mL Na-pyruvate (0.1 M) were added aseptically. All stock-solutions were filter-sterilized, except the autoclaved non-chelated trace element mixture. Cultures were incubated aerobically at 42° C. without shaking in sterile 250-mL Erlenmeyer flasks or 30-mL cultivation tubes (Product number: 216-1290, Quickstart universal containers STERILIN®, VWR) filled with either 100 or 20 mL FWM and sealed with tape (Micropore™ Surgical Tape 1530-1, 3M™). Late-log phase cultures ([NO2-] ≥ 1 mM) were subcultivated by dilution (1:400) in fresh FWM.
# 7-day old 100 mL cultures grown in 250-mL Erlenmeyer flasks with a [NO2-] ≥ 1 mM were 5 times overconcentrated in fresh FWM by centrifugation (4000 rpm, 15 min, 5° C.) in 50 mL centrifuge tubes (Cat. No. 430829, CentriStar™ Conical Centrifuge Tubes, Corning®). Per batch, all the cultures were pooled in one sterile Schott bottle. Subsequently, 200 µl/well was dispensed at low pipetting speed in transparent flat bottom 96-well plates (Cat. No. 353072, Falcon® 96 Well Clear Microplate, Corning®) using 150 µl wide-bore tips (two steps of 100 µl) on a Tecan robot (Freedom EVO®, Tecan). 0.5 µl of 99.99 % DMSO (negative control - final concentration 0.25%) and 0.5 µl of 0.04 M PTIO (2-phenyl-4,4,5,5-tetramethylimidazoline-1-oxyl 3-oxide, positive control - final concentration 100 µM) were added manually to the first and last column respectively. Finally, 0.5 µl of candidate nitrification inhibitors (1 mM stock solutions in 99.99% DMSO - final concentration 2.5 µM) were added to the central wells using a pin tool on a Tecan robot (Freedom EVO®, Tecan). In between additions, the pins were washed in sequence with 99.5% DMSO, MilliQ water and 100% ethanol and air-dried. All plates were sealed with tape (Micropore™ Surgical Tape 1530-1, 3M™), stacked per 4 on top of a 96-well plate filled with 100 µl MilliQ per well and covered with aluminum foil. Position effects of the stacks within the incubator were considered. Plates were incubated at 42° C. without shaking. 24 h later, NO2— was measured spectrophotometrically at 540 nm (EnVision, Perkin Elmer®). […]
# [2] = test system: ABIL (ammonia-binding liquid inoculum), nitrifying microbial enrichment containing both AOA and AOB; test: Nitrification inhibition assay on ABIL (ammonium consumption); format: cell-based; details: for activity at 10 µM / ABIL - relative nitrification (%) at 10 µM: 10 µM compound
# [3] = 24 h, 24 h, 0% = as strong as 100 µM PTIO, 100% = no inhibition, read-out: ABIL - relative nitrification (%) at 10 µM
# [4] = 24 h, 0% = as strong as 100 µM PTIO, 100% = no inhibition
# [5] = structural variants outside formula (I), read-out: Relative nitrification (%) by ABIL treated with 10 µM compound
Compound,activity at 2.5 µM [1] [%],"activity at 10 µM [2, 5] [%]",further results
COCCNC(=O)c1cc(-c2ccc(C)cc2)nc2c1cnn2C(C)C [Example 1],,,"N. viennensis - relative nitrification (%) at 0.5 µM [1]: 52%; N. viennensis - relative nitrification (%) at 5 µM [1]: 0%; N. viennensis - relative nitrification (%) at 25 µM [1]: 0%; activity at 10 µM [2, 3]: -9%"
Cc1nn(C)c2nc(C(C)C)cc(C(=O)N(C)c3nc4ccccc4s3)c12 [Example 3],,,"N. viennensis - relative nitrification (%) at 0.5 µM [1]: 49%; N. viennensis - relative nitrification (%) at 5 µM [1]: 0%; N. viennensis - relative nitrification (%) at 25 µM [1]: 0%; ABIL - relative nitrification (%) at 2 µM ([2]; 2 µM compound, 0% = as strong as 100 µM PTIO, 100% = no inhibition): -30%; activity at 10 µM [2, 3]: -41%"
CC(C)c1cc(C(=O)NCC2CCCO2)c2cnn(C(C)C)c2n1 (centres unmarked) [Example 4],,,"ABIL - relative nitrification (%) at 10 µM [2, 4]: 10%"
COCCNC(=O)c1cc(C2CC2)nc2c1cnn2C(C)C [Example 5],,,"activity at 10 µM [2, 3]: 11%"
COCCONC(=O)c1cc(C2CC2)nc2c1c(C)nn2C(C)(C)C [Example 6],,,"activity at 10 µM [2, 3]: 16%"
CC(C)n1ncc2c(C(=O)Nc3nc4c(s3)CCC4)cc(C3CC3)nc21 [Example 7],,,N. viennensis - relative nitrification (%) at 0.5 µM [1]: 85%; N. viennensis - relative nitrification (%) at 5 µM [1]: 7%; N. viennensis - relative nitrification (%) at 25 µM [1]: 2%
Cc1nn(C)c2nc(-c3ccco3)cc(C(=O)N(C)CCOc3cccc(Cl)c3)c12 [Example 8],,,N. viennensis - relative nitrification (%) at 0.5 µM [1]: 100%; N. viennensis - relative nitrification (%) at 5 µM [1]: 98%; N. viennensis - relative nitrification (%) at 25 µM [1]: 5%
CCn1ncc2c(C(=O)NCC3CCCO3)cc(-c3ccccc3)nc21 (centres unmarked) [Example 9],,,N. viennensis - relative nitrification (%) at 0.5 µM [1]: 100%; N. viennensis - relative nitrification (%) at 5 µM [1]: 100%; N. viennensis - relative nitrification (%) at 25 µM [1]: 54%
CC(C)n1ncc2c(C(=O)NCCc3ccccn3)cc(C3CC3)nc21 [Example 10],,,"activity at 10 µM [2, 3]: 19%"
Cc1nn(C(C)(C)C)c2nc(C3CC3)cc(C(=O)N(C)C)c12 [Example 11],,,"activity at 10 µM [2, 3]: 25%"
Cc1nn(C(C)(C)C)c2nc(C3CC3)cc(C(=O)NC(C)C)c12 [Example 12],,,"activity at 10 µM [2, 3]: 30%"
CC(C)c1cc(C(=O)NCC2CCCO2)c2cnn(C(C)C)c2n1 (centres unmarked) [Example 13],,,"ABIL - relative nitrification (%) at 10 µM [2, 4]: 49%"
CCC(C)NC(=O)c1cc(C(C)C)nc2c1cnn2C(C)C (centres unmarked) [Example 14],,,"activity at 10 µM [2, 3]: 61%"
CC(C)n1ncc2c(C(=O)NCCN(C)C)cc(C3CC3)nc21 [Example 15],,,"activity at 10 µM [2, 3]: 65%"
Cc1nn(C)c2nc(C3CC3)cc(C(=O)NCCC(C)C)c12 [Example 16],,,"activity at 10 µM [2, 3]: 65%"
Cc1nn(C)c2nc(C3CC3)cc(C(=O)N(C)CC(=O)Nc3ccc(Cl)c(Cl)c3)c12 [Example 17],,,"activity at 10 µM [2, 3]: 68%"
CCCN(C)C(=O)c1cc(C2CC2)nc2c1cnn2C(C)C [Example 18],,,"activity at 10 µM [2, 3]: 69%"
CC(C)n1ncc2cc(NC(=O)C3CC3(Cl)Cl)cnc21 (centres unmarked) [Example 19],100,90,
Cc1n[nH]c2nc(C(F)(F)F)cc(C(F)(F)F)c12 [Example 20],100,90,
Cc1nn(C)c2ncc(C(=O)NCC3CN(CC(C)C)CCO3)cc12 (centres unmarked) [Example 21],100,90,
CC(Oc1ccc(Br)cc1)C(=O)Nc1cnc2c(cnn2C(C)C)c1 (centres unmarked) [Example 22],100,90,
CC(=O)NC(CC(=O)Nc1cnc2c(cnn2C(C)C)c1)c1ccc(Cl)cc1 (centres unmarked) [Example 23],100,91,
CCc1nnc(NC(=O)c2cnc3c(cnn3C(C)C)c2)s1 [Example 24],100,91,

Compound,activity at 2.5 µM [1] [%],"activity at 10 µM [2, 5] [%]",further results
c1csc(Cn2ncc3ccc(-c4ccc5c(c4)OCO5)nc32)c1 [Example 25],100,91,
Cc1nc2c(cnn2C(C)C)c(C)c1CCC(=O)N1CCSCC1 [Example 26],100,92,
CNC(=O)N(C)C(=O)c1cnc2c(cnn2C(C)C)c1 [Example 27],100,92,
CC(C)n1ncc2cc(NC(=O)CCS(=O)(=O)c3ccc(Cl)cc3)cnc21 [Example 28],100,92,
CCN(CC1CCOC1)C(=O)c1cnc2c(cnn2C(C)C)c1 (centres unmarked) [Example 29],100,92,
CC(C)n1ncc2cc(CNc3ccc4[nH]ncc4c3)ccc21 [Example 30],100,92,
Cc1nc2c(cnn2C(C)C)cc1C(=O)NC(C)C1CC1 (centres unmarked) [Example 31],99,93,
CCC(C)n1ncc2c(C(=O)O)cc(C3CC3)nc21 (centres unmarked) [Example 32],90,94,
CC(C)n1ncc2cc(C(=O)Nc3ccc(F)cc3F)cnc21 [Example 33],100,94,
CCc1cccc(NC(=O)CCc2c(C)nc3c(c(C)nn3C)c2C)c1 [Example 34],99,96,
CC(C)n1ncc2cc(NC(=O)CCC3CCCO3)cnc21 (centres unmarked) [Example 35],98,96,
Cc1nc2c(c(C)nn2C)c(C)c1CCC(=O)O [Example 36],94,97,
Cc1nn(C)c2ncc(CNCCCN3CCc4ccccc43)cc12 [Example 37],100,97,
CC(C)n1ncc2cc(CN(C)C3CCSC3)cnc21 (centres unmarked) [Example 38],99,97,
COc1ccc(OC)c(C(C)NC(=O)c2cnc3c(cnn3C(C)C)c2)c1 (centres unmarked) [Example 39],100,97,
Cc1n[nH]c2ncc(CNCCc3ccsc3)cc12 [Example 40],93,98,
CCN(CC1CCOC1)C(=O)c1cc2cnn(C(C)C)c2nc1C (centres unmarked) [Example 41],100,98,
CC(C)n1ncc2cc(C(=O)NCc3ccccc3OC(F)(F)F)cnc21 [Example 42],98,98,
CNS(=O)(=O)c1cccc(C(=O)Nc2cnc3c(c2)c(C)nn3C)c1 [Example 43],100,98,
Cc1nc2cc(NC(=O)c3cnc4c(cnn4C(C)C)c3)ccc2o1 [Example 44],100,99,
Cc1cc(C)c2c(OCC(=O)N3CCOCC3(C)C)nn(C)c2n1 [Example 45],98,99,
Cc1nc2c(c(C)nn2C)c(C)c1CCC(=O)N1CC(C)OC(C)C1 (centres unmarked) [Example 46],90,99,
